In the kinase profiling compilation of Christmann-Franck et al. (2016):

Experiments:
Assay in all cases: split-luciferase competition binding
SGK2 (human) = SGK2 (human) (UniProt Q9HBY8); settings: compound 10.0 µM
SGK3 (human) = SGK3 (human) (UniProt Q96BR1); settings: compound 10.0 µM
PRKACA (mouse) = settings: compound 10.0 µM; accession and sequence are those of the human protein
AURKB (human) = AURKB (human) (UniProt Q96GD4); settings: compound 10.0 µM
AURKC (human) = AURKC (human) (UniProt Q9UQB9); settings: compound 10.0 µM
AKT1 (human) = AKT1 (human) (UniProt P31749); settings: compound 10.0 µM
PRKCG (human) = PRKCG (human) (UniProt P05129); settings: compound 10.0 µM
PRKCD (human) = PRKCD (human) (UniProt Q05655); settings: compound 10.0 µM
STK32B (human) = STK32B (human) (UniProt Q9NY57); settings: compound 10.0 µM
Sequence of STK32B (human) (Q9NY57 whole entry, looked up): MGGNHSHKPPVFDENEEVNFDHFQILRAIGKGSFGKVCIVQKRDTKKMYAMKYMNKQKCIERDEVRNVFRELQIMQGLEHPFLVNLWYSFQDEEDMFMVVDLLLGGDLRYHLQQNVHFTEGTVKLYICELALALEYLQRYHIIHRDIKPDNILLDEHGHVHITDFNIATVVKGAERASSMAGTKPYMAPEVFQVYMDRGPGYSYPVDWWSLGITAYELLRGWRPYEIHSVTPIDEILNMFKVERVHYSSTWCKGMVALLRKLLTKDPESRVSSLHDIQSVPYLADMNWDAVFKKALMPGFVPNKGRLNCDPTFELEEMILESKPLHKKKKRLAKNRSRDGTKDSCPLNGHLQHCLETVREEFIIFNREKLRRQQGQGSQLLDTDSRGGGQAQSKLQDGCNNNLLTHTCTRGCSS

AKT2 (human) = AKT2 (human) (UniProt P31751); settings: compound 10.0 µM
RPS6KA5 KD1 (human) = RPS6KA5 KD1 (human) (UniProt O75582); settings: compound 10.0 µM
PDPK1 (human) = PDPK1 (human) (UniProt O15530); settings: compound 10.0 µM
RPS6KA1 KD1 (human) = RPS6KA1 KD1 (human) (UniProt Q15418); settings: compound 10.0 µM
RPS6KA2 KD1 (human) = RPS6KA2 KD1 (human) (UniProt Q15349); settings: compound 10.0 µM
Sequence of RPS6KA2 KD1 (human) (Q15349 whole entry, looked up): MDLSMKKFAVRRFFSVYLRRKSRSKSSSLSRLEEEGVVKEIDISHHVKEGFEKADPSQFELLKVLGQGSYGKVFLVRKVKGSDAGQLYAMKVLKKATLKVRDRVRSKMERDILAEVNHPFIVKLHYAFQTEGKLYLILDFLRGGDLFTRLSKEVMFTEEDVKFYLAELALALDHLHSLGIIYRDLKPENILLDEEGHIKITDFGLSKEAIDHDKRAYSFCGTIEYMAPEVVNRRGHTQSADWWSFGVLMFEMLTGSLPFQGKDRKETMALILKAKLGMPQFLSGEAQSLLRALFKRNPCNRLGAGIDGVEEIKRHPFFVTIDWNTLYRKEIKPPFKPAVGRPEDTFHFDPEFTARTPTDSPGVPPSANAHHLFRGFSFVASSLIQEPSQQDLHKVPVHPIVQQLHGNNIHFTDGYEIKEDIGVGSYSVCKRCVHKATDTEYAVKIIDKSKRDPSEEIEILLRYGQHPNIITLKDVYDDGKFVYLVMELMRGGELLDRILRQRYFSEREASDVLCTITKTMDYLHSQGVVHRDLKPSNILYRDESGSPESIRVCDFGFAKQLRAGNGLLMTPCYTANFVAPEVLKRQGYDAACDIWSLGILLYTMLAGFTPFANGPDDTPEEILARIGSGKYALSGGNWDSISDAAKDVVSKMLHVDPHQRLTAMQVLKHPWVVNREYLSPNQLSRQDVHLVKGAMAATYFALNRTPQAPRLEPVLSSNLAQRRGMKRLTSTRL

PRKCE (human) = PRKCE (human) (UniProt Q02156); settings: compound 10.0 µM
RPS6KA3 KD1 (human) = RPS6KA3 KD1 (human) (UniProt P51812); settings: compound 10.0 µM
PKN1 (human) = PKN1 (human) (UniProt Q16512); settings: compound 10.0 µM
Sequence of PKN1 (human) (Q16512 whole entry, looked up): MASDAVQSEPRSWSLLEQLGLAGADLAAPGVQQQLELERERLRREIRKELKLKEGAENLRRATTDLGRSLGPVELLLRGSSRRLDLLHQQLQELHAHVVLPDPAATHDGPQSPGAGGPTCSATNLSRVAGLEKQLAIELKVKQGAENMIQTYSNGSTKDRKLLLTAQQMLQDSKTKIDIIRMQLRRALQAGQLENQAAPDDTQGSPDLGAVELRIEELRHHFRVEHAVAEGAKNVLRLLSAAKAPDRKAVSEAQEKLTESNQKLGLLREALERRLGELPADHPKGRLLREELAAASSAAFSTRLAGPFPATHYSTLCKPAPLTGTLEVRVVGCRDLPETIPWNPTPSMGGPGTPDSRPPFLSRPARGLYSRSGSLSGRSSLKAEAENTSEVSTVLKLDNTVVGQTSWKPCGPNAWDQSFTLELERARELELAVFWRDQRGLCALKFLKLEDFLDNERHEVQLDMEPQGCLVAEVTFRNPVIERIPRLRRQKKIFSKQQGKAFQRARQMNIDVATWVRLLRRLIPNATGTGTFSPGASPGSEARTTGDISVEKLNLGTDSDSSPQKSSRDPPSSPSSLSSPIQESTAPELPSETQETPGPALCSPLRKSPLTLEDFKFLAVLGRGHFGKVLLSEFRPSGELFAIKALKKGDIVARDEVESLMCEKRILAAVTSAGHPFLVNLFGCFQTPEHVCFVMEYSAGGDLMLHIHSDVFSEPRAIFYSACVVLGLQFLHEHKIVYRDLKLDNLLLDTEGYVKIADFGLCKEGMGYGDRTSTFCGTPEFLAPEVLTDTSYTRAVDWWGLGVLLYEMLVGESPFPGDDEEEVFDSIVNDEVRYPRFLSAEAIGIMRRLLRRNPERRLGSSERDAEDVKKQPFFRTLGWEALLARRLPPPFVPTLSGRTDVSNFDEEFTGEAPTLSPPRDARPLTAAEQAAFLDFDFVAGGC

AKT3 (human) = AKT3 (human) (UniProt Q9Y243); settings: compound 10.0 µM
Sequence of AKT3 (human) (Q9Y243 whole entry, looked up): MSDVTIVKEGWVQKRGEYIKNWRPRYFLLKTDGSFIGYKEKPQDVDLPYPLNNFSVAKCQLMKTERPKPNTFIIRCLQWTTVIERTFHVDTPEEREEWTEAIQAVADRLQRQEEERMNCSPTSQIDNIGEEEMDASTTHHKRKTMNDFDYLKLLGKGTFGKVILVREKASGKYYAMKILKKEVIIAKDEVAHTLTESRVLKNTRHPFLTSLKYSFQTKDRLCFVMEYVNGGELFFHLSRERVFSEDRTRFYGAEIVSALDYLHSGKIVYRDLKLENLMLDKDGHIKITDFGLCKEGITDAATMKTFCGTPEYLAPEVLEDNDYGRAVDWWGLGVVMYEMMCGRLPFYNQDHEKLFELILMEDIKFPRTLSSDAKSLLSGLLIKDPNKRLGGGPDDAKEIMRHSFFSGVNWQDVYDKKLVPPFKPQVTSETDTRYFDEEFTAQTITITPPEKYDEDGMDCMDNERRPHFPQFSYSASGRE

PRKCQ (human) = PRKCQ (human) (UniProt Q04759); settings: compound 10.0 µM
Sequence of PRKCQ (human) (Q04759 whole entry, looked up): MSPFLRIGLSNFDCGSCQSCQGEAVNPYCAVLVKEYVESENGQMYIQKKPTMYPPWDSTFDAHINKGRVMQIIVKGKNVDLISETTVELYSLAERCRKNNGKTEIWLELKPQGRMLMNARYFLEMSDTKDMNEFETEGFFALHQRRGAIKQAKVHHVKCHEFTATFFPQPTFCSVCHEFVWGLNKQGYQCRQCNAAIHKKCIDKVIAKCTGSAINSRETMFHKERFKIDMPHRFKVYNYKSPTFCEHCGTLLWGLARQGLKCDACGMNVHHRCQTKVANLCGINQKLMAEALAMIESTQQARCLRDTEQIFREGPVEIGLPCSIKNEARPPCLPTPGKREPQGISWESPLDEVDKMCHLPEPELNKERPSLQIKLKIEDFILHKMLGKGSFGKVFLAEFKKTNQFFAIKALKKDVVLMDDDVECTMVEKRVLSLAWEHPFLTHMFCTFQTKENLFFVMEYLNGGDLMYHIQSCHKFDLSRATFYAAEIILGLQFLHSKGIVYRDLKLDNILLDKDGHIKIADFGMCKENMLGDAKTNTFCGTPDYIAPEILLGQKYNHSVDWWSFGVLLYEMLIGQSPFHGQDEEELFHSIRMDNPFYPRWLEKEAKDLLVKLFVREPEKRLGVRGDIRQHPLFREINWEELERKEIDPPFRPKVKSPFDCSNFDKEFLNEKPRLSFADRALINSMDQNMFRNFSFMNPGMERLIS

PRKCH (human) = PRKCH (human) (UniProt P24723); settings: compound 10.0 µM
RPS6KA4 KD1 (human) = RPS6KA4 KD1 (human) (UniProt O75676); settings: compound 10.0 µM
DMPK (human) = DMPK (human) (UniProt Q09013); settings: compound 10.0 µM
Sequence of DMPK (human) (Q09013 whole entry, looked up): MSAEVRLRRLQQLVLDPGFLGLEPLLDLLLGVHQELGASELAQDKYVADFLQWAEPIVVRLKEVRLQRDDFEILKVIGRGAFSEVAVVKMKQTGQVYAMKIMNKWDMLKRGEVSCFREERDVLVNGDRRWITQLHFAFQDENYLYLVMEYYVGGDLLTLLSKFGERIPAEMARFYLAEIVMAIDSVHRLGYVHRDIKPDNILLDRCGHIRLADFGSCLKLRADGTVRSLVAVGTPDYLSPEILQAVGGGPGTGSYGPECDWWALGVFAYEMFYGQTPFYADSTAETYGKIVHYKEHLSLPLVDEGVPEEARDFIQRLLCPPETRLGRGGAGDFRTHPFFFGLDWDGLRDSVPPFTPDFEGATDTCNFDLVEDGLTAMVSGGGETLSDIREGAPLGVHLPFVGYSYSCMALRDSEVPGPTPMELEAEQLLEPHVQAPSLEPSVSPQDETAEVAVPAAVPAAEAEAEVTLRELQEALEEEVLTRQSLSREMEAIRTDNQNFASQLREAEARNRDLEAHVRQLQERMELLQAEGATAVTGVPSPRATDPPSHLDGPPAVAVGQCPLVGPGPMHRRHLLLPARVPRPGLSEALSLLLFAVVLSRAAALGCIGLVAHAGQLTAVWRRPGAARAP

PRKCI (human) = PRKCI (human) (UniProt P41743); settings: compound 10.0 µM
RPS6KA6 KD1 (human) = RPS6KA6 KD1 (human) (UniProt Q9UK32); settings: compound 10.0 µM
Sequence of RPS6KA6 KD1 (human) (Q9UK32 whole entry, looked up): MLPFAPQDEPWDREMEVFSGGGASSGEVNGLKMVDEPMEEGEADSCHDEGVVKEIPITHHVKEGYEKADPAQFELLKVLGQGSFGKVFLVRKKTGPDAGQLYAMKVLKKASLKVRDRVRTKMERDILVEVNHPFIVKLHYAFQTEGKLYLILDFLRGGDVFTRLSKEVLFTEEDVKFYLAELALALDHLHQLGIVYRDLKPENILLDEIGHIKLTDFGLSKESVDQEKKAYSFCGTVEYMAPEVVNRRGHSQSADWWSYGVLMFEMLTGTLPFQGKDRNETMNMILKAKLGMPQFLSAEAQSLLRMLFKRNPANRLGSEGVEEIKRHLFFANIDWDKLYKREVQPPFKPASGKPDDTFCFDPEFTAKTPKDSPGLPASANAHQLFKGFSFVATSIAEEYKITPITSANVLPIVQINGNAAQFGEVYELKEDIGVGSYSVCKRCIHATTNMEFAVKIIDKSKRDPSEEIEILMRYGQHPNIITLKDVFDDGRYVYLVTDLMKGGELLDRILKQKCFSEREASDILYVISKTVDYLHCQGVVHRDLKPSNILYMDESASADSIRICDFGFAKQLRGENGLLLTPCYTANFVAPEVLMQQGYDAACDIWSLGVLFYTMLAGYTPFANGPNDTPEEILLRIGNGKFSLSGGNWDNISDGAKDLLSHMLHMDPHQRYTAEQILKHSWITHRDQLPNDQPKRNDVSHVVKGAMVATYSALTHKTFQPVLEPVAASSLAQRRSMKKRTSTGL

AURKA (human) = AURKA (human) (UniProt O14965); settings: compound 10.0 µM
PRKACB (human) = PRKACB (human) (UniProt P22694); settings: compound 10.0 µM
PRKX (human) = PRKX (human) (UniProt P51817); settings: compound 10.0 µM
Sequence of PRKX (human) (P51817 whole entry, looked up): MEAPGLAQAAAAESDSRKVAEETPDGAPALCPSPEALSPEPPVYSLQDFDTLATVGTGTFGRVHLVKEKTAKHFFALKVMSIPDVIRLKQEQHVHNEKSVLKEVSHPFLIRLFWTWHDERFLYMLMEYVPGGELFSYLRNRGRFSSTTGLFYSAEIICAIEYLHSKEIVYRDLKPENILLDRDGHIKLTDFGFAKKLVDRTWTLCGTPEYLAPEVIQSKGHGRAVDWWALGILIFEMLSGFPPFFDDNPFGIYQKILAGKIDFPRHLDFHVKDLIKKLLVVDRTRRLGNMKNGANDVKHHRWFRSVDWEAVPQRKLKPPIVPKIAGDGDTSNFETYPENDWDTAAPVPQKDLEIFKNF

Row | inhibition (SGK2 (human)) [%] | inhibition (SGK3 (human)) [%] | inhibition (PRKACA (mouse)) [%] | inhibition (AURKB (human)) [%] | inhibition (AURKC (human)) [%] | inhibition (AKT1 (human)) [%] | inhibition (PRKCG (human)) [%] | inhibition (PRKCD (human)) [%] | inhibition (STK32B (human)) [%] | inhibition (AKT2 (human)) [%] | inhibition (RPS6KA5 KD1 (human)) [%] | inhibition (PDPK1 (human)) [%] | inhibition (RPS6KA1 KD1 (human)) [%] | inhibition (RPS6KA2 KD1 (human)) [%] | inhibition (PRKCE (human)) [%] | inhibition (RPS6KA3 KD1 (human)) [%] | inhibition (PKN1 (human)) [%] | inhibition (AKT3 (human)) [%] | inhibition (PRKCQ (human)) [%] | inhibition (PRKCH (human)) [%] | Structure (SMILES) | further results
1 | 0 | 0 | 5 | 14 | 16 | 0 | 0 | 0 | 0 | 0 | 3 | 0 | 0 | 0 | 0 | 0 | 0 | 0 | 0 | 0 | COc1ccc(Cl)cc1NC(=O)Nc1cc(C)nc2ccccc12 | inhibition (RPS6KA4 KD1 (human)): 0%; inhibition (DMPK (human)): 6%; inhibition (PRKCI (human)): 0%; inhibition (RPS6KA6 KD1 (human)): 0%; inhibition (AURKA (human)): 0%; inhibition (PRKACB (human)): 0%; inhibition (PRKX (human)): 1%
2 | 17 | 12 | 16 | 71 | 80 | 6 | 3 | 0 | 0 | 0 | 43 | 0 | 0 | 32 | 0 | 12 | 10 | 0 | 20 | 0 | COc1cc2nccc(Oc3ccc(NC(=O)Nc4ccc(F)cc4F)c(F)c3)c2cc1OC | inhibition (RPS6KA4 KD1 (human)): 23%; inhibition (DMPK (human)): 13%; inhibition (PRKCI (human)): 0%; inhibition (RPS6KA6 KD1 (human)): 21%; inhibition (AURKA (human)): 41%; inhibition (PRKACB (human)): 5%; inhibition (PRKX (human)): 12%

Continued, compound first:

Row | Structure (SMILES) | inhibition (SGK2 (human)) [%] | inhibition (SGK3 (human)) [%] | inhibition (PRKACA (mouse)) [%] | inhibition (AURKB (human)) [%] | inhibition (AURKC (human)) [%] | inhibition (AKT1 (human)) [%] | inhibition (PRKCG (human)) [%] | inhibition (PRKCD (human)) [%] | inhibition (STK32B (human)) [%] | inhibition (AKT2 (human)) [%] | inhibition (RPS6KA5 KD1 (human)) [%] | inhibition (PDPK1 (human)) [%] | inhibition (RPS6KA1 KD1 (human)) [%] | inhibition (RPS6KA2 KD1 (human)) [%] | inhibition (PRKCE (human)) [%] | inhibition (RPS6KA3 KD1 (human)) [%] | inhibition (PKN1 (human)) [%] | inhibition (AKT3 (human)) [%] | inhibition (PRKCQ (human)) [%] | inhibition (PRKCH (human)) [%] | further results
3 | CC(=O)c1c(O)c(C)c(O)c(Cc2c(O)c3c(c(C(=O)/C=C/c4ccccc4)c2O)OC(C)(C)C=C3)c1O | 20 | 0 | 16 | 10 | 8 | 24 | 26 | 6 | 23 | 0 | 0 | 0 | 0 | 9 | 14 | 4 | 0 | 0 | 9 | 0 | inhibition (RPS6KA4 KD1 (human)): 0%; inhibition (DMPK (human)): 23%; inhibition (PRKCI (human)): 0%; inhibition (RPS6KA6 KD1 (human)): 13%; inhibition (AURKA (human)): 5%; inhibition (PRKACB (human)): 22%; inhibition (PRKX (human)): 16%
4 | CN1CCC(Nc2ncc3ncnc(Nc4ccc(F)c(Cl)c4)c3n2)CC1 | 0 | 0 | 6 | 8 | 10 | 0 | 0 | 0 | 0 | 0 | 0 | 0 | 0 | 4 | 0 | 0 | 3 | 0 | 0 | 0 | inhibition (RPS6KA4 KD1 (human)): 0%; inhibition (DMPK (human)): 3%; inhibition (PRKCI (human)): 0%; inhibition (RPS6KA6 KD1 (human)): 0%; inhibition (AURKA (human)): 0%; inhibition (PRKACB (human)): 0%; inhibition (PRKX (human)): 6%
5 | COc1cc2ncnc(Nc3ccc(F)c(Cl)c3)c2cc1OCCCN1CCOCC1 | 0 | 3 | 1 | 27 | 19 | 0 | 9 | 0 | 0 | 0 | 0 | 2 | 0 | 0 | 7 | 0 | 0 | 0 | 2 | 0 | inhibition (RPS6KA4 KD1 (human)): 0%; inhibition (DMPK (human)): 13%; inhibition (PRKCI (human)): 0%; inhibition (RPS6KA6 KD1 (human)): 0%; inhibition (AURKA (human)): 0%; inhibition (PRKACB (human)): 0%; inhibition (PRKX (human)): 7%
